Results as given in ChEMBL document CHEMBL1770078, “Discovery of a potent peptidic cyclophilin A inhibitor Trp-Gly-Pro” (Eur J Med Chem, 2011).
Where a SMILES comes first, the peptide text is derived from it.

Tests used:
[1] = molecular target: T1, Peptidyl-prolyl cis-trans isomerase A (Homo sapiens, UniProt P62937); assay: Inhibition of PPIase activity of Cyclophilin A by Spectrophotometry
[2] = molecular target: T1, Peptidyl-prolyl cis-trans isomerase A; assay: Binding affinity to Cyclophilin A
Target sequence in this assay (P62937 whole entry): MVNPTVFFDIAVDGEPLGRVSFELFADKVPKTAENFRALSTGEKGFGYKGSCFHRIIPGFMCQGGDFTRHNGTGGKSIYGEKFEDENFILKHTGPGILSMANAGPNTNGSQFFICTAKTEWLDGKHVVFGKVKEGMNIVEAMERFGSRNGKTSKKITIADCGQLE

[3] = system: Human immunodeficiency virus 1; assay: Antiviral activity against HIV1 3B infected in human MT2 cells assessed as inhibition of viral replication at 1 mM after 48 hrs by flow cytometry; format: functional; conditions: Human immunodeficiency virus 1, 3B, MT2, 48 h
SK-HEP1 = assay: Cytotoxicity against human SKHEP1 cells upto 100 uM after 48 hrs by MTT assay; format: cell-based; conditions: sk-hep1, 48 h

Row | inhibition [1] | IC50 ([1]; read-out: IC50) | Kd ([2]; read-out: Kd) | Structure (SMILES) | inhibition at 1000 µM [3] | Activity (SK-HEP1) | IC50 [1] | Kd [2]
1 | Dose-dependent effect | 33.1 nM | 3410 nM | N[C@@H](Cc1c[nH]c2ccccc12)C(=O)NCC(=O)N1CCC[C@H]1C(=O)O (H-Trp-Gly-Pro-OH) | 75.5% | Non-toxic |  | 
2 |  |  |  | N[C@@H](Cc1ccc(O)cc1)C(=O)NCC(=O)N1CCC[C@H]1C(=O)O (H-Tyr-Gly-Pro-OH) |  |  | Not Active | Not Active
3 |  |  |  | C[C@H](NC(=O)[C@@H](N)Cc1c[nH]c2ccccc12)C(=O)NCC(=O)N1CCC[C@H]1C(=O)O (H-WAGP-OH) |  |  | Not Active | Not Active
